Laboratory results as given in US8481572B2, “Pharmaceutical compositions and methods for the treatment of cancer” (Urifer Ltd., priority 2007, dated 2013).
Where two headings read alike, the source gives them in different places.

Columns and labels:
Type in all cases: cell-based
[1] = tested on: MCF-7 breast cancer cell line; assay: XTT test, number of viable cells, MCF-7; details: Homo sapiens, MCF7, concentrations tested up to 80 μM
Protocol: (§1) The effect of the four compounds 497, 631, 115 and 540 on the growth profile of cancer cells which express Fer was tested. The cells that were tested were: the colon cancer cell lines HT29 and HCT 116, the breast cancer cell lines MDA-MB-231 and MCF-7, and the prostate cancer cell lines PC3 and DU145. The effect of each of the four compounds on FS11 cells, a non malignant fibroblastic cell line, was also studied.
(§2) The cells were seeded in 96 wells microplates and were left to grow untreated overnight. Each of the […] compounds was dissolved in DMSO and was then added to each well in a dose dependent manner from 0.4 to 80 μM. The concentration of DMSO in each well was 0.4% v/v. Untreated cells and cells subjected to 0.4% DMSO alone, served as controls. The number of viable cells in each well was determined 48, 72, 96 hours after compounds addition, using the XTT test (Berridge, M. V. et al, 2005).

[2] = tested on: FS11 human fibroblastic cells; assay: XTT test, number of viable cells, FS11 non-malignant fibroblasts; details: for EC50: Homo sapiens, Fibroblast, XTT test, concentrations tested up to 80 μM
Protocol: as §1, §2
(§3) The effect of compound E626-0342 on the growth profile of cancer cells which express Fer was tested. The compound was added to the growth media of FS11-normal primary human fibroblasts and to two colon cancer cell lines, HCT116 and HT29, which express Fer.
(§4) Various cell lines were seeded in 96 wells microplates and were left to grow untreated overnight. Compound E626-0342, dissolved in DMSO at a stock concentration of 10 mM was then added to each well in a dose dependent manner, resulting in final concentrations extending from 0.5 to 15 μM. The final concentration of DMSO in each well was 1% v/v. Untreated cells and cells subjected to 1% DMSO alone, served as controls. The number of viable cells in each well was determined 96 hours after addition of the compound, using the XTT test (Berridge, M. V. et al, 2005).

[3] = tested on: MDA-MB-231 breast cancer cell line; assay: XTT test, number of viable cells, MDA-MB-231; details: Homo sapiens, concentrations tested up to 80 μM
Protocol: as §1, §2

[4] = tested on: HT29 human colorectal carcinoma cells; assay: XTT test, number of viable cells, HT29
Protocol: as §1, §2, §3, §4

[5] = tested on: HCT116 human colorectal carcinoma cells; assay: XTT test, number of viable cells, HCT116
Protocol: as §1, §2, §3, §4

[6] = tested on: PC3 prostate cancer cell line; assay: XTT test, number of viable cells, PC3; details: concentrations tested up to 80 μM
Protocol: as §1, §2

[7] = tested on: DU145 prostate cancer cell line; assay: XTT test, number of viable cells, DU145; details: Homo sapiens, DU-145, concentrations tested up to 80 μM
Protocol: as §1, §2

murine Fer = target: T1, murine Fer (Mus musculus, UniProt P70451); assay: Fer tyrosine phosphorylation in yeast cells expressing ectopic Fer (western blot); details: 40 μM for 48 h
T1 construct: expressed in transfected cells; host or cells: S. cerevisiae yeast cells harboring plasmid pAES-Fer
Protocol: To examine whether the above listed compounds affect the enzymatic activity of Fer, the protein tyrosine phosphorylation profile in yeast cells which ectopically express the murine Fer, was analyzed using the yeast system disclosed in WO2007/107991. Since the S. cerevisae yeast cells lack almost completely detectable, endogenous, tyrosine phosphorylation activity, the detected tyrosine phosphorylation signals result essentially from the kinase activity of the ectopic Fer. Furthermore, considering the negligible tyrosine-phosphorylation background in the cells, it is possible to specifically track the tyrosine phosphorylation level of Fer in the treated yeast cells.
Yeast cells expressing an ectopic Fer were treated with 40 μM of one of the compounds 497, 631, 115 and 540 for 48 h. […] The expression levels of Fer and the tyrosine phosphorylation profiles of the proteins before and after treatment with the compounds were determined using a western-blot analysis. […]
To examine whether E626-0342 affects the enzymatic activity of Fer, the protein tyrosine phosphorylation profile in yeast cells which ectopically express the murine Fer, was analyzed. Since the S. cerevisae yeast cells lack almost completely detectable, endogenous, tyrosine phosphorylation activity, the detected tyrosine phosphorylation signals result essentially from the kinase activity of the ectopic Fer. […]

[8] = HT-29, XTT test, concentrations tested up to 80 μM, read-out: EC50 on HT29
[9] = HCT-116, XTT test, concentrations tested up to 80 μM, read-out: EC50 on HCT116

T1 sequence (P70451 whole entry): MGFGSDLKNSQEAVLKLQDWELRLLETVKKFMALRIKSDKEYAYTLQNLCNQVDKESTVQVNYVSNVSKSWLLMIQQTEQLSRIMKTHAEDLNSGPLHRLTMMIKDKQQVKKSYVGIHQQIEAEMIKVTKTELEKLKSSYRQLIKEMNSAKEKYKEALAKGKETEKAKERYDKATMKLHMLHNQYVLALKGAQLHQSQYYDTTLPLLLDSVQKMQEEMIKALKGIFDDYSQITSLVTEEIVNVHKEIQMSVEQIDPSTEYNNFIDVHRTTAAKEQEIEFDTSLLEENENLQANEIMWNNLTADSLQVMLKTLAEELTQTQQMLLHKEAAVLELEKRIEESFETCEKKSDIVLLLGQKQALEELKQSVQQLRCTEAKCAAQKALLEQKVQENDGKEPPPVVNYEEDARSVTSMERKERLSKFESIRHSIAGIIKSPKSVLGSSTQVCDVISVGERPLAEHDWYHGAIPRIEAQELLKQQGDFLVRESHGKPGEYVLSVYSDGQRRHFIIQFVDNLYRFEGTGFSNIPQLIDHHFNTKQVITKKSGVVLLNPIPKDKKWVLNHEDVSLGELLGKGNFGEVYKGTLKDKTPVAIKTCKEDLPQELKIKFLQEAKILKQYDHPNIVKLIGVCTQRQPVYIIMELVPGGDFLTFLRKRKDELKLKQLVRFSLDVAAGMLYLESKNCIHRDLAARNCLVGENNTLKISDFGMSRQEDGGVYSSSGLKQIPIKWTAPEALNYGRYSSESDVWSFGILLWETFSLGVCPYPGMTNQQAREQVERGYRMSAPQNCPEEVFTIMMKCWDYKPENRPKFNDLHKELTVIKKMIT

Cc1ccn2cc(-c3ccc(F)cc3)cc2c1 [Compound 115]
EC50 [1]: 8 µM | EC50 [2]: > 80 µM | EC50 [3]: 40 µM | EC50 [4, 8]: 32 µM | EC50 [5, 9]: 32 µM

Nc1cc(-c2ccc(Cl)cc2)nn1S(=O)(=O)c1c(F)c(F)c(F)c(F)c1F [Compound 497]
EC50 [6]: 4 µM | EC50 [1]: 8 µM | EC50 [7]: 8 µM | EC50 [2]: 4 µM | EC50 [3]: 2 µM | EC50 [4, 8]: 2 µM | IC50 ([4]; HT-29, after 96 h, read-out: IC50, reduction in number of viable cells, HT29): 2 µM | EC50 [5, 9]: 2 µM | IC50 ([5]; HCT-116, after 96 h, read-out: IC50, reduction in number of viable cells, HCT116): 2 µM | tyrosine phosphorylation level of the Fer protein band (Fer autophosphorylation) (murine Fer): significant reduction

CC(C)c1nn2cc(-c3ccc(F)cc3)nc2s1 [Compound 631]
EC50 [6]: 32 µM | effect on FS11 cells ([2]; up to a concentration of 80 μM): did not affect | EC50 [3]: 32 µM | EC50 ([4]; HT-29, 0.4% DMSO, 0.4 to 80 μM, read-out: EC50, decrease in cell viability, HT29): 40 µM | EC50 [4, 8]: 30 µM | EC50 ([5]; HCT-116, 0.4% DMSO, 0.4 to 80 μM, read-out: EC50, decrease in cell viability, HCT116): 24 µM | EC50 [5, 9]: 24 µM | tyrosine phosphorylation level of the Fer protein band (Fer autophosphorylation) (murine Fer): significant reduction
